A word on the MIC: it is the lowest concentration found to suppress growth.

Molecules are shown by their SMILES. Converted amounts (≈) assume the structure as drawn.

For one experiment, the system named is methicillin-resistant S. aureus (FPR3757). As to the kind of experiment: MIC against clinical MRSA strain FPR3757 in Mueller-Hinton broth (CLSI). Particulars: MRSA FPR3757 MIC ratio. Format: cell-based, Staphylococcus aureus. An excerpt:
The first set of compounds evaluated were analogs at the C-7 and C-8 positions of the initial quinolone hit DNAC-2 since the other HTS hits identified (data not shown) were substituted at these positions (Table 1). Applicants first explored modification at the C-7 position with a small series of electron-donating and withdrawing substituents. […] However, analogs containing electron donating groups at C-7 including ethyl 7, benzyloxy 8, methoxy 9 and methylthio 10 are weakly active displaying MICs of 320-640 μg/mL indicating electron-donating substituents at C-7 are poorly tolerated. […] The C-8 position was evaluated with trifluoromethyl 4 and trifluoromethoxy 5 containing the optimal C-7 substituents. Both 4 and 5 are equipotent to the corresponding C-7 analogs 2 and 3 indicating some flexibility of the quinolone scaffold.
As for `Fc1cccc(Nc2cc(C(F)(F)F)nc3cc(C(F)(F)F)ccc23)c1` [Compound 18], the “fold loss of potency (MIC) relative to the comparator” value is given as 16-64 fold.
As to `FC(F)(F)Oc1cccc(Nc2nc(C(F)(F)F)nc3cc(C(F)(F)F)ccc23)c1` [Compound 90], the “fold increase in potency (MIC) relative to the comparator” value was 8 fold.
In the case of `COc1ccc2c(=O)cc(C(F)(F)F)[nH]c2c1` [Compound 9], the “fold loss of potency (MIC) relative to the comparator” value is given as 80-160 fold.

The experiment is the same for the next values; noted with them: MRSA clinical strain FPR3757, Mueller-Hinton broth, CLSI guidelines, complete inhibition of observable growth.
On to `O=C1Cc2cc(Nc3cc(C(F)(F)F)nc4cc(C(F)(F)F)ccc34)ccc2N1` [Compound 64], for which the MIC is more than 32 µg/mL.
Consider `N#Cc1cccc(Nc2cc(C(F)(F)F)nc3cc(C(F)(F)F)ccc23)c1` [Compound 14], for which the MIC is more than 32 µg/mL.
On the same count and under the same terms, the value for `FC(F)(F)Oc1cccc(Nc2cc(C(F)(F)F)nc3c(OC(F)(F)F)cccc23)c1` [Compound 1] was 8 µg/mL (≈ 17.5 µM); that for `FC(F)(F)c1ccc2c(NC[C@@H]3CCCN3)cc(C(F)(F)F)nc2c1` [Compound 60] was more than 32 µg/mL; that for `CN1Cc2cc(Nc3cc(C(F)(F)F)nc4cc(C(F)(F)F)ccc34)ccc2C1=O` [Compound 62] was more than 32 µg/mL.
The same measure, in the same setting: the value for `FC(F)(F)c1ccc2c(N3CCOCC3)cc(C(F)(F)F)nc2c1` [Compound 59] was more than 32 µg/mL; that for `O=c1cc(C(F)(F)F)[nH]c2cc(OCc3ccccc3)ccc12` [Compound 8] was 640 µg/mL (≈ 2000 µM); that for `O=c1cc(C(F)(F)F)[nH]c2cc(C(F)(F)F)ccc12` [Compound 2] was 5 µg/mL (≈ 17.8 µM).
Compound `O=c1cc(C(F)(F)F)[nH]c2cc(Nc3ccc(C(F)(F)F)cn3)cc(C(F)(F)F)c12` [Compound 122] gave an MIC of 4 µg/mL (≈ 9.07 µM).
Same read-out and setting: the value for `FC(F)(F)c1ccc2c(Nc3nccs3)cc(C(F)(F)F)nc2c1` [Compound 55] was 1 to 2 µg/mL.
Same read-out and setting: the value for `COC(=O)c1cc(Nc2cc(C(F)(F)F)nc3cc(C(F)(F)F)ccc23)ccn1` [Compound 54] was more than 32 µg/mL; that for `CSc1cccc(Nc2cc(C(F)(F)F)nc3cc(C(F)(F)F)ccc23)c1` [Compound 24] was 0.25 to 0.5 µg/mL.
Still for that read-out and setting: the value for `CSc1ccc2c(=O)cc(C(F)(F)F)[nH]c2c1` [Compound 10] was 640 µg/mL (≈ 2470 µM); that for `FC(F)(F)Oc1cccc(Nc2nc(C(F)(F)F)nc3cc(C(F)(F)F)ccc23)c1` [Compound 90] was 1 µg/mL (≈ 2.27 µM).
Compound `FC(F)(F)c1ccc2c(Nc3ncccn3)cc(C(F)(F)F)nc2c1` [Compound 56] gave an MIC of more than 32 µg/mL.
Compound `COc1ccc2c(=O)cc(C(F)(F)F)[nH]c2c1` [Compound 9] showed an MIC of 640 µg/mL (≈ 2630 µM).
In turn, `FC(F)(F)c1ccc2c(Nc3ccc(Cl)cc3)cc(C(F)(F)F)nc2c1` [Compound 17] registered an MIC of 0.12 µg/mL (≈ 0.307 µM).
`FC(F)(F)c1ccc(Nc2cc(N3CCNCC3)c3ccc(C(F)(F)F)cc3n2)nc1` [Compound 103]: the MIC is 4 to 8 µg/mL.
The same measure, in the same setting: the value for `Fc1ccc(Nc2cc(C(F)(F)F)nc3cc(C(F)(F)F)ccc23)cc1F` [Compound 21] was 0.12 to 0.25 µg/mL.
Still for that read-out and setting: the value for `CN(C)c1ccc(Nc2cc(C(F)(F)F)cc3[nH]c(C(F)(F)F)cc(=O)c23)nc1` [Compound 113] was 2 µg/mL (≈ 4.8 µM).
On the same count and under the same terms, the value for `CCc1ccc2c(=O)cc(C(F)(F)F)[nH]c2c1` [Compound 7] was 320 µg/mL (≈ 1330 µM).
With `FC(F)(F)Oc1cccc(Nc2cc(C(F)(F)F)nc3cc(OC(F)(F)F)ccc23)c1` [Compound 33], the MIC came out at 1 µg/mL (≈ 2.19 µM).
Still for that read-out and setting: the value for `FC(F)(F)c1ccc2c(Nc3cccc4[nH]ncc34)cc(C(F)(F)F)nc2c1` [Compound 61] was more than 32 µg/mL.
On the same count and under the same terms, the value for `FC(F)(F)c1ccc(Nc2cc(N3CCOCC3)c3ccc(C(F)(F)F)cc3n2)nc1` [Compound 105] was 8 µg/mL (≈ 18.1 µM); that for `FC(F)(F)Oc1cccc(Nc2cc(C(F)(F)F)nc3c(OC(F)(F)F)cccc23)c1` [Compound 43] was 1 µg/mL (≈ 2.19 µM); that for `FC(F)(F)c1ccc2c(N3CCc4cccnc43)cc(C(F)(F)F)nc2c1` [Compound 63] was more than 32 µg/mL.

The same experiment, now with this note: Staphylococcus aureus, MRSA.
In turn, `CC(=O)c1cccc(Nc2cc(C(F)(F)F)nc3cc(C(F)(F)F)ccc23)c1` [Compound 13] came in with an MIC of more than 128 µg/mL.
In turn, `FC(F)(F)c1ccc2c(Nc3ccccc3)cc(C(F)(F)F)nc2c1` [Compound 11] registered an MIC of 128 µg/mL (≈ 359 µM).

Still in this experiment, the particulars now being: Staphylococcus aureus, MRSA, MRSA clinical strain FPR3757, Mueller-Hinton broth, CLSI guidelines, complete inhibition of observable growth; read-out: MIC.
`O=C1Cc2cc(Nc3cc(C(F)(F)F)nc4cc(C(F)(F)F)ccc34)ccc2N1` [Compound 64]: the MIC is more than 32 µg/mL.
Consider `FC(F)(F)Oc1cccc(Nc2cc(C(F)(F)F)nc3cc(C(F)(F)F)ccc23)c1` [Compound 27], for which the MIC was determined as 8 µg/mL (≈ 18.2 µM).
Same read-out and setting: the value for `FC(F)(F)c1ccc2c(Nc3cccc(N4CCOCC4)c3)cc(C(F)(F)F)nc2c1` [Compound 29] was more than 16 µg/mL.
As to `COc1ccc2c(Nc3ccc(C(F)(F)F)cn3)cc(C(F)(F)F)nc2c1` [Compound 38], the MIC was found to be 32 µg/mL (≈ 82.6 µM).
Same read-out and setting: the value for `FC(F)(F)c1ccc2c(NC[C@@H]3CCCN3)cc(C(F)(F)F)nc2c1` [Compound 60] was more than 32 µg/mL; that for `COc1ccc2c(Nc3ccc(F)c(F)c3)cc(C(F)(F)F)nc2c1` [Compound 36] was more than 32 µg/mL; that for `CN1Cc2cc(Nc3cc(C(F)(F)F)nc4cc(C(F)(F)F)ccc34)ccc2C1=O` [Compound 62] was more than 32 µg/mL.
Still for that read-out and setting: the value for `FC(F)(F)c1ccc2c(N3CCOCC3)cc(C(F)(F)F)nc2c1` [Compound 59] was more than 32 µg/mL; that for `COc1cccc(Nc2cc(C(F)(F)F)nc3cc(C(F)(F)F)ccc23)c1` [Compound 25] was more than 64 µg/mL; that for `O=c1cc(C(F)(F)F)[nH]c2cc(C(F)(F)F)ccc12` [Compound 2] was 4 to 8 µg/mL (≈ 14.2 to 28.5 µM).
`FC(F)(F)c1ccc2c(Nc3nccs3)cc(C(F)(F)F)nc2c1` [Compound 55]: the MIC was determined as 2 µg/mL (≈ 5.51 µM).
For the compound `COC(=O)c1cc(Nc2cc(C(F)(F)F)nc3cc(C(F)(F)F)ccc23)ccn1` [Compound 54], the MIC was more than 32 µg/mL.
In the case of `FC(F)(F)c1cc(Nc2ccc(Cl)c(Cl)c2)c2cccc(C(F)(F)F)c2n1` [Compound 45], the MIC is 0.5 to 2 µg/mL (≈ 1.18 to 4.7 µM).
Still for that read-out and setting: the value for `OCc1cccc(Nc2cc(C(F)(F)F)nc3cc(C(F)(F)F)ccc23)c1` [Compound 23] was more than 16 µg/mL; that for `O=c1cc(Nc2cc(C(F)(F)F)nc3cc(C(F)(F)F)ccc23)cc[nH]1` [Compound 52] was more than 32 µg/mL.
Same read-out and setting: the value for `FC(F)(F)c1ccc2c(Nc3ncccn3)cc(C(F)(F)F)nc2c1` [Compound 56] was more than 32 µg/mL; that for `COc1ccc2c(=O)cc(C(F)(F)F)[nH]c2c1` [Compound 9] was 320 to 640 µg/mL (≈ 1320 to 2630 µM).
`FC(F)(F)c1ccc2c(Nc3ccc(Cl)cc3)cc(C(F)(F)F)nc2c1` [Compound 17]: the MIC lay in the range of 0.125 to 0.25 µg/mL (≈ 0.32 to 0.64 µM).
As for `Fc1ccc(Nc2cc(C(F)(F)F)nc3cc(C(F)(F)F)ccc23)cc1F` [Compound 21], the MIC was in the range of 0.125 to 0.25 µg/mL (≈ 0.319 to 0.637 µM).
Turning to `CN(C)c1ccc(Nc2cc(C(F)(F)F)cc3[nH]c(C(F)(F)F)cc(=O)c23)nc1` [Compound 113], the MIC was 1 to 2 µg/mL (≈ 2.4 to 4.8 µM).
The same measure, in the same setting: the value for `O=c1cc(C(F)(F)F)[nH]c2c(OC(F)(F)F)cccc12` [Compound 5] was 5 µg/mL (≈ 16.8 µM); that for `CCc1ccc2c(=O)cc(C(F)(F)F)[nH]c2c1` [Compound 7] was 320 to 640 µg/mL (≈ 1330 to 2650 µM); that for `FC(F)(F)Oc1cccc(Nc2cc(C(F)(F)F)nc3cc(OC(F)(F)F)ccc23)c1` [Compound 33] was 0.5 to 1 µg/mL (≈ 1.1 to 2.19 µM).
For the compound `FC(F)(F)c1ccc2c(Nc3cccc4[nH]ncc34)cc(C(F)(F)F)nc2c1` [Compound 61], the MIC is more than 32 µg/mL.
Take `O=c1cc(C(F)(F)F)[nH]c2cc(C(F)(F)F)cc(Nc3ccc(F)cn3)c12` [Compound 112]: the MIC turned out to be 0.12 µg/mL (≈ 0.307 µM).
Still for that read-out and setting: the value for `O=c1cc(C(F)(F)F)[nH]c2c(C(F)(F)F)cccc12` [Compound 4] was 2 to 4 µg/mL (≈ 7.11 to 14.2 µM); that for `O=c1cc(C(F)(F)F)[nH]c2cc(Cl)ccc12` [Compound 6] was 20 µg/mL (≈ 80.8 µM).
Turning to `Cn1cc(Nc2cc(C(F)(F)F)nc3cc(C(F)(F)F)ccc23)ccc1=O` [Compound 50], the MIC was more than 32 µg/mL.
Regarding `FC(F)(F)Oc1cccc2c(Nc3ccc(Cl)c(Cl)c3)cc(C(F)(F)F)nc12` [Compound 42], the MIC is 0.5 µg/mL (≈ 1.13 µM).
As for `O=c1cc(C(F)(F)F)[nH]c2cc(OC(F)(F)F)ccc12` [Compound 3], the MIC was in the range of 4 to 8 µg/mL (≈ 13.5 to 26.9 µM).
As for `FC(F)(F)c1ccc2c(Nc3ccccc3Cl)cc(C(F)(F)F)nc2c1` [Compound 15], the MIC is more than 16 µg/mL.
Still for that read-out and setting: the value for `FC(F)(F)c1cccc(Nc2cc(C(F)(F)F)nc3c(C(F)(F)F)cccc23)c1` [Compound 46] was 1 µg/mL (≈ 2.36 µM); that for `Oc1ncccc1Nc1cc(C(F)(F)F)nc2cc(C(F)(F)F)ccc12` [Compound 51] was more than 128 µg/mL.
`FC(F)(F)c1ccc2c(Nc3cccc(Br)c3)cc(C(F)(F)F)nc2c1` [Compound 19]: the MIC amounted to 0.25 µg/mL (≈ 0.574 µM).
Same read-out and setting: the value for `FC(F)(F)c1ccc2c(N3CCc4cccnc43)cc(C(F)(F)F)nc2c1` [Compound 63] was more than 32 µg/mL.
On the same count and under the same terms, the value for `FC(F)(F)c1ccc2c(Nc3ccc(N4CCOCC4)cc3)cc(C(F)(F)F)nc2c1` [Compound 30] was more than 16 µg/mL.

The record behind these values is patent publication US20220274927A1, “MEMBRANE-ACTIVE ANTI-BACTERIAL COMPOUNDS AND USES THEREOF” (Trustees of Dartmouth College, priority 2019, published 2022).
